In the first test the test system is H3K36me3 in A549 cells. Kind of test: In-Cell Western (ICW) assay of SETD2 inhibitors (A549 assay). The format is cell-based, human. The conditions noted are these: A549 cells; read-out: SETD2 A549. The method in brief: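 A549 cells seeded at 4,000/well onto compound and incubated 3 days at 37° C. Methanol-fixed cells stained overnight at 4° C with anti-H3K36me3 (1:1000), then IRDye 800CW secondary with DRAQ5 DNA counterstain. Plates read by Licor imaging at 700 and 800 channels.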
For `CC(=O)N1CCN(C2CC(NC(=O)c3cc4c(F)ccc(C)c4[nH]3)CN(C)C2)CC1` (centres unmarked) [compound 360], the IC50 is over 2 µM.
Turning to `Cc1ccc(F)c2cc(C(=O)Nc3cccc(-c4nnc(C5CC5)o4)c3)[nH]c12` [compound 119], the IC50 turned out to be 0.2 µM.
As for `CC(=O)N1CCN(c2cc(NC(=O)c3cc4c(F)ccc(C)c4[nH]3)ccc2F)CC1` [compound 79], the IC50 is 0.2 µM.
Take `Cc1ccc(N2CCOCC2)cc1NC(=O)c1cc2cccc(C)c2[nH]1` [compound 490]: the IC50 amounted to 12.1 µM.
In the case of `Cc1ccc(F)c2cc(C(=O)NC3CCCC(N4CCC(N(C)C(=O)C(C)C)C4)C3)[nH]c12` (centres unmarked) [compound 969], the IC50 stood at 0.1 µM.
With `Cc1ccc(F)c2cc(C(=O)NC3CCCC(N4CCN(C(=O)CO)C(C(F)(F)F)C4)C3)[nH]c12` (centres unmarked) [compound 1176], the IC50 was over 2 µM.
As for `Cc1ccc(F)c2cc(C(=O)Nc3cccc(N4CCCC4)c3)[nH]c12` [compound 332], the IC50 turned out to be 1.6 µM.
For `Cc1ccc(F)c2cc(C(=O)NC3CCCC(N4CCC(N(C)C(=O)CO)C4)C3)[nH]c12` (centres unmarked) [compound 983], the IC50 was found to be 0.1 µM.
For `Cc1ccc(F)c2cc(C(=O)Nc3cccc(N4CCN(C)C(=O)C4)c3)[nH]c12` [compound 58], the IC50 was 0.1 µM.
As to `Cc1ccc(F)c2cc(C(=O)Nc3cccc(CN4CCN(C)CC4)c3)[nH]c12` [compound 421], the IC50 amounted to 3.6 µM.
Turning to `Cc1ccc(F)c2cc(C(=O)Nc3cccc(N4CCN5C(=O)NCC5C4)c3)[nH]c12` (centres unmarked) [compound 181], the IC50 amounted to 0.4 µM.
As to `CCN(C(=O)CO)C1CCN(C2CCCC(NC(=O)c3cc4c(F)ccc(C)c4[nH]3)C2)C1` (centres unmarked) [compound 1130], the IC50 was over 2 µM.
As to `Cc1ccc(F)c2cc(C(=O)NC3CCCC(N4CCN5C(=O)COCC5C4)C3)[nH]c12` (centres unmarked) [compound 1139], the IC50 stood at 1.7 µM.
Still for that read-out and setting: the same measure for `Cc1ccc(F)c2cc(C(=O)Nc3cc(C4CCN(C)CC4)n[nH]3)[nH]c12` [compound 558]: over 25 µM; for `Cc1ccc(F)c2cc(C(=O)Nc3cc(F)cc(N4CCN(C(=O)N(C)C)CC4)c3)[nH]c12` [compound 25]: 0.07 µM; for `Cc1ccc(F)c2cc(C(=O)Nc3cccc(N4CCN(CC5CC5)CC4)c3)[nH]c12` [compound 199]: 0.4 µM.
Turning to `COC(=O)CC(NC(=O)c1cc2cccc(C)c2[nH]1)c1ccc(Br)cc1` (centres unmarked) [compound 525], the IC50 stood at 20.9 µM.
On the same count and under the same terms, the same measure for `Cc1ccc(F)c2cc(C(=O)Nc3cccc(-c4cn[nH]c4)c3)[nH]c12` [compound 252]: 0.6 µM; for `CC(=O)N1CCC2(CC1)CCN(c1cc(F)cc(NC(=O)c3cc4c(F)ccc(C)c4[nH]3)c1)C2` [compound 5]: 0.04 µM; for `Cc1cc2nccn2nc1C(NC(=O)c1cc2c(F)ccc(C)c2[nH]1)C1CC1` (centres unmarked) [compound 481]: 9.7 µM.
For `Cc1ccc(F)c2cc(C(=O)Nc3cccc(N4CCN(C(C)C)C(=O)C4)c3)[nH]c12` [compound 201], the IC50 came to 0.4 µM.
Consider `Cc1cccc2cc(C(=O)Nc3cccc(N4CCN(C(=O)CN)CC4)c3)[nH]c12` [compound 396], for which the IC50 was found to be 2.3 µM.

The same test, now with this note: Homo sapiens; A549 cells; read-out: SETD2 A549.
Turning to `Cc1ccc(F)c2cc(C(=O)Nc3cccc(N(C)C4CCNCC4)c3)[nH]c12` [compound 325], the IC50 came to 1.5 µM.
As to `Cc1cc(C(=O)N[C@H]2CC[C@@H]2N)cnc1C(NC(=O)c1cc2cccc(C)c2[nH]1)C1CC1` (some centres unmarked) [compound 573], the IC50 is over 25 µM.
For the compound `Cc1ccc(F)c2cc(C(=O)N[C@@H]3CCC[C@H](N4CCC5(CCC(=O)N5)CC4)C3)[nH]c12` [compound 938], the IC50 amounted to 0.5 µM.

The target in the next test is T1, SETD2(1434-1711) (Homo sapiens, UniProt Q9BYW2).
T1 construct: SETD2 (1434-1711) Assay; catalogue N/A
T1 sequence (Q9BYW2 1434-1711): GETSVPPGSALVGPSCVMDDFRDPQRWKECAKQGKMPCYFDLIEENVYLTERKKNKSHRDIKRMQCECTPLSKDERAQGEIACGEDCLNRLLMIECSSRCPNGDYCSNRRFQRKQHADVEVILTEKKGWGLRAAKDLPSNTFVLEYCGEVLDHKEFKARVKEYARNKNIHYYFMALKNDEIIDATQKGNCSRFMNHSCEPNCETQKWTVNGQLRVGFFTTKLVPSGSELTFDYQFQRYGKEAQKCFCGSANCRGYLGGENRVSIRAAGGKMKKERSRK
The test is described as follows: SETD2 (1434-1711) assay. In kind it is biochemical. The conditions noted are these: read-out: SETD2 (1434-1711).
As for `CC(=O)N1CCN(C2CC(NC(=O)c3cc4c(F)ccc(C)c4[nH]3)CN(C)C2)CC1` (centres unmarked) [compound 360], the IC50 was found to be 1.2 µM.
Consider `Cc1ccc(F)c2cc(C(=O)Nc3cccc(-c4nnc(C5CC5)o4)c3)[nH]c12` [compound 119], for which the IC50 came to 0.03 µM.
For `Cc1ccc(F)c2cc(C(=O)Nc3cccc(N(C)C4CCNCC4)c3)[nH]c12` [compound 325], the IC50 turned out to be 0.07 µM.
On to `Cc1cc(C(=O)N[C@H]2CC[C@@H]2N)cnc1C(NC(=O)c1cc2cccc(C)c2[nH]1)C1CC1` (some centres unmarked) [compound 573], for which the IC50 turned out to be 16.9 µM.
Same read-out and setting: in the case of `CC(=O)N1CCN(c2cc(NC(=O)c3cc4c(F)ccc(C)c4[nH]3)ccc2F)CC1` [compound 79] it was 0.07 µM; in that of `Cc1ccc(F)c2cc(C(=O)N[C@@H]3CCC[C@H](N4CCC5(CCC(=O)N5)CC4)C3)[nH]c12` [compound 938], 0.03 µM; in that of `Cc1ccc(N2CCOCC2)cc1NC(=O)c1cc2cccc(C)c2[nH]1` [compound 490], 6.5 µM.
For the compound `Cc1ccc(F)c2cc(C(=O)NC3CCCC(N4CCC(N(C)C(=O)C(C)C)C4)C3)[nH]c12` (centres unmarked) [compound 969], the IC50 is 0.004 µM.
In the case of `Cc1ccc(F)c2cc(C(=O)NC3CCCC(N4CCN(C(=O)CO)C(C(F)(F)F)C4)C3)[nH]c12` (centres unmarked) [compound 1176], the IC50 was 2.9 µM.
For the compound `Cc1ccc(F)c2cc(C(=O)Nc3cccc(N4CCCC4)c3)[nH]c12` [compound 332], the IC50 is 0.2 µM.
Turning to `Cc1ccc(F)c2cc(C(=O)NC3CCCC(N4CCC(N(C)C(=O)CO)C4)C3)[nH]c12` (centres unmarked) [compound 983], the IC50 worked out at 0.02 µM.
Regarding `Cc1ccc(F)c2cc(C(=O)Nc3cccc(N4CCN(C)C(=O)C4)c3)[nH]c12` [compound 58], the IC50 was 0.04 µM.
Same read-out and setting: in the case of `Cc1ccc(F)c2cc(C(=O)Nc3cccc(CN4CCN(C)CC4)c3)[nH]c12` [compound 421] it was 0.4 µM; in that of `Cc1ccc(F)c2cc(C(=O)Nc3cccc(N4CCN5C(=O)NCC5C4)c3)[nH]c12` (centres unmarked) [compound 181], 0.03 µM; in that of `CCN(C(=O)CO)C1CCN(C2CCCC(NC(=O)c3cc4c(F)ccc(C)c4[nH]3)C2)C1` (centres unmarked) [compound 1130], 4 µM.
On to `Cc1ccc(F)c2cc(C(=O)NC3CCCC(N4CCN5C(=O)COCC5C4)C3)[nH]c12` (centres unmarked) [compound 1139], for which the IC50 turned out to be 0.5 µM.
As to `Cc1ccc(F)c2cc(C(=O)Nc3cc(C4CCN(C)CC4)n[nH]3)[nH]c12` [compound 558], the IC50 is over 10 µM.
Turning to `Cc1ccc(F)c2cc(C(=O)Nc3cc(F)cc(N4CCN(C(=O)N(C)C)CC4)c3)[nH]c12` [compound 25], the IC50 was 0.01 µM.
The same measure, in the same setting: in the case of `Cc1ccc(F)c2cc(C(=O)Nc3cccc(N4CCN(CC5CC5)CC4)c3)[nH]c12` [compound 199] it was 0.05 µM; in that of `COC(=O)CC(NC(=O)c1cc2cccc(C)c2[nH]1)c1ccc(Br)cc1` (centres unmarked) [compound 525], 12.6 µM.
Turning to `Cc1ccc(F)c2cc(C(=O)Nc3cccc(-c4cn[nH]c4)c3)[nH]c12` [compound 252], the IC50 stood at 0.2 µM.
As to `CC(=O)N1CCC2(CC1)CCN(c1cc(F)cc(NC(=O)c3cc4c(F)ccc(C)c4[nH]3)c1)C2` [compound 5], the IC50 is 0.008 µM.
Still for that read-out and setting: in the case of `Cc1cc2nccn2nc1C(NC(=O)c1cc2c(F)ccc(C)c2[nH]1)C1CC1` (centres unmarked) [compound 481] it was 1.9 µM.
For `Cc1ccc(F)c2cc(C(=O)Nc3cccc(N4CCN(C(C)C)C(=O)C4)c3)[nH]c12` [compound 201], the IC50 came to 0.09 µM.
For `Cc1cccc2cc(C(=O)Nc3cccc(N4CCN(C(=O)CN)CC4)c3)[nH]c12` [compound 396], the IC50 worked out at 0.3 µM.
